In patent US12220412B2, “Methods for administering corticosteroids” (Sparrow Pharmaceuticals, Inc., priority 2018, dated 2025):

What was measured:
Type in all cases: in vivo
Parameters in all cases: from tissue; host or cells: in vivo, human subjects
HSD-1 [1] = molecular target: T1, HSD-1 (Homo sapiens, UniProt P28845); assay: Urinary (tetrahydrocortisol+allotetrahydrocortisol)/tetrahydrocortisone ratio as indicator of HSD-1 activity in clinical trial subjects; conditions: for HSD-1 ratio (tetrahydrocortisol [5α + 5β]/tetrahydrocortisone), Day 1 Median / HSD-1 ratio (tetrahydrocortisol [5α + 5β]/tetrahydrocortisone), Day 1 mean: Day 1 single dose; for HSD-1 ratio (tetrahydrocortisol [5α + 5β]/tetrahydrocortisone), Day 1 Median / HSD-1 ratio (tetrahydrocortisol [5α + 5β]/tetrahydrocortisone), Day 1 mean / HSD-1 ratio (tetrahydrocortisol [5α + 5β]/tetrahydrocortisone), Day 18 Mean / HSD-1 ratio (tetrahydrocortisol [5α + 5β]/tetrahydrocortisone), Day 18 Median: 24 h urine; for HSD-1 ratio (tetrahydrocortisol [5α + 5β]/tetrahydrocortisone), Day 18 Mean / HSD-1 ratio (tetrahydrocortisol [5α + 5β]/tetrahydrocortisone), Day 18 Median: Day 18 after daily doses Days 5 through 18
Protocol: Following a minimum of a 10-hour fast, healthy adult racially diverse male and female subjects were administered Compound A (ASP3662) or placebo for Compound A with 240 mL of room temperature water. Subjects continued to fast from any food and drinks (water was allowed as desired except for 1 hour before and 1 hour after study drug administration) until 4 hours after study drug administration. Urine samples were collected for the measurement of cortisol, cortisone, tetrahydrocortisol (5α, 5β) and tetrahydrocortisone. The cumulative amount of each entity excreted in the urine was calculated for each subject from time zero to 24 hours after dosing (Ae24), from 24 hours after dosing to 48 hours after dosing (Ae48), and Aelast.
The ratio of 5α-tetrahydrocortisol+5β-tetrahydrocortisol to urinary tetrahydrocortisone was used as an indicator of HSD-1 activity. Compound A decreased the 5α-tetrahydrocortisol+5β-tetrahydrocortisol to urinary tetrahydrocortisone ratio with increasing dose compared to placebo, resulting in approximately 80% inhibition at 6 mg. […]

HSD-1 [2] = molecular target: T1, HSD-1; assay: Brain HSD-1 occupancy by PET with [11C]AS2471907 after single dose; conditions: for HSD-1 occupancy: single dose 3 mg
Protocol: The level and time course of HSD-1 occupancy following single dose administration of Compound A were assessed in healthy male subjects by positron emission tomography (PET). For each PET scan, [11C]AS2471907 was administered by an intravenous infusion pump, followed by up to 120 minutes of dynamic PET data acquisition. Most subjects underwent two PET scans.

HSD-1 [3] = molecular target: T1, HSD-1; assay: Direct sigmoidal Emax model of plasma concentration vs brain HSD-1 occupancy (ROIswa); conditions: brain HSD-1 occupancy (ROIswa) vs plasma concentration
Protocol: Simulations of brain enzyme occupancy were conducted for several dosing schemes for Compound A that involved both an initial dose and a maintenance dose.
The relationship of Compound A plasma concentrations to region of interest size weighted average (ROIswa) HSD-1 occupancy in brain was best described by a direct sigmoidal Emax model (FIG. 5).

[4] = healthy adult non-Japanese subjects, 20 mg
[5] = healthy adult non-Japanese subjects, 50 mg

T1 sequence (P28845 whole entry): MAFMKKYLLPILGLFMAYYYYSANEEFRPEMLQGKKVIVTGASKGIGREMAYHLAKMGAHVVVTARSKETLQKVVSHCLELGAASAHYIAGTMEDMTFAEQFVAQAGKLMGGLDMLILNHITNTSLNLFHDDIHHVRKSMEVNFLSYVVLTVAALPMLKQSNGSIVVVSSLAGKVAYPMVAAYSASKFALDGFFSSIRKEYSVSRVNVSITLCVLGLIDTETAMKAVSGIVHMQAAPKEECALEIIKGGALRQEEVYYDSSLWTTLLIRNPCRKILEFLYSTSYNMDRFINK

HSD-1 activity (urinary ratio) (HSD-1 [1]; healthy adult non-Japanese subjects, 2 mg, 0.7 mg, 0.4 mg and 0.2 mg cohorts, single dose Day 1 then daily doses): significantly decreased | HSD-1 ratio (tetrahydrocortisol [5α + 5β]/tetrahydrocortisone), Day 1 Median (HSD-1 [1]; [4]): 0.16 | HSD-1 ratio (tetrahydrocortisol [5α + 5β]/tetrahydrocortisone), Day 1 mean (HSD-1 [1]; [4]): 0.17 | HSD-1 ratio (tetrahydrocortisol [5α + 5β]/tetrahydrocortisone), Day 18 Mean (HSD-1 [1]; [4]): 0.12 | HSD-1 ratio (tetrahydrocortisol [5α + 5β]/tetrahydrocortisone), Day 18 Median (HSD-1 [1]; [4]): 0.12 | HSD-1 ratio (tetrahydrocortisol [5α + 5β]/tetrahydrocortisone), Day 1 Median (HSD-1 [1]; [5]): 0.16 | HSD-1 ratio (tetrahydrocortisol [5α + 5β]/tetrahydrocortisone), Day 1 mean (HSD-1 [1]; [5]): 0.16 | HSD-1 ratio (tetrahydrocortisol [5α + 5β]/tetrahydrocortisone), Day 18 Mean (HSD-1 [1]; [5]): 0.11 | HSD-1 ratio (tetrahydrocortisol [5α + 5β]/tetrahydrocortisone), Day 18 Median (HSD-1 [1]; [5]): 0.10 | mean HSD-1 ratio (significantly decreased HSD-1 activity) (HSD-1 [1]; healthy adult non-Japanese subjects, doses of 20 mg and 50 mg, both days 1 and 18): approximately 0.1 | inhibition (decrease of 5α-tetrahydrocortisol+5β-tetrahydrocortisol to urinary tetrahydrocortisone ratio compared to placebo) (HSD-1 [1]; healthy adult subjects, fasted, single dose 6 mg): approximately 80% | Occupancy (ROIswa), PET Scan 1 (HSD-1 [2]; Subject A, 30 mg single dose, 2.62 hrs post dose): 99.68% | Occupancy (ROIswa), PET Scan 2 (HSD-1 [2]; Subject A, 30 mg single dose, 23.75 hrs post dose): 99.71% | Occupancy (ROIswa), PET Scan 1 (HSD-1 [2]; Subject B, 30 mg single dose, 27.43 hrs post dose): 99.97% | Occupancy (ROIswa), PET Scan 2 (HSD-1 [2]; Subject B, 30 mg single dose, 46.75 hrs post dose): 98.83% | Occupancy (ROIswa), PET Scan 1 (HSD-1 [2]; Subject C, 6 mg single dose, 3.25 hrs post dose): 99.73% | Occupancy (ROIswa), PET Scan 2 (HSD-1 [2]; Subject C, 6 mg single dose, 23.74 hrs post dose): 96.20% | Occupancy (ROIswa), PET Scan 1 (HSD-1 [2]; Subject D, 3 mg single dose, 3.27 hrs post dose): 89.91% | Occupancy (ROIswa), PET Scan 2 (HSD-1 [2]; Subject D, 3 mg single dose, 45.25 hrs post dose): 83.15% | Occupancy (ROIswa), PET Scan 1 (HSD-1 [2]; Subject E, 3 mg single dose, 19.2 hrs post dose): 88.16% | Occupancy (ROIswa), PET Scan 2 (HSD-1 [2]; Subject E, 3 mg single dose, 25.43 hrs post dose): 83.85% | Occupancy (ROIswa), PET Scan 1 (HSD-1 [2]; Subject F, 3 mg single dose, 42.19 hrs post dose): 58.87% | Occupancy (ROIswa), PET Scan 2 (HSD-1 [2]; Subject F, 3 mg single dose, 138.67 hrs post dose): 45.49% | Occupancy (ROIswa), PET Scan 1 (HSD-1 [2]; Subject G, 3 mg single dose, 42.46 hrs post dose): 70.96% | Occupancy (ROIswa), PET Scan 2 (HSD-1 [2]; Subject G, 3 mg single dose, 189.15 hrs post dose): 25.61% | Occupancy (ROIswa), PET Scan 1 (HSD-1 [2]; Subject H, 3 mg single dose, 43.85 hrs post dose): 56.39% | Occupancy (ROIswa), PET Scan 2 (HSD-1 [2]; Subject H, 3 mg single dose, 139.36 hrs post dose): 36.31% | Occupancy (ROIswa), PET Scan 1 (HSD-1 [2]; Subject I, 3 mg single dose, 46.24 hrs post dose): 60.92% | Occupancy (ROIswa), PET Scan 1 (HSD-1 [2]; Subject J, 2 mg single dose, 2.84 hrs post dose): <0% | Occupancy (ROIswa), PET Scan 1 (HSD-1 [2]; Subject K, 1 mg single dose, 3.24 hrs post dose): <0% | Occupancy (ROIswa), PET Scan 2 (HSD-1 [2]; Subject K, 1 mg single dose, 20.66 hrs post dose): <0% | Occupancy (ROIswa), PET Scan 1 (HSD-1 [2]; Subject L, 1 mg single dose, 22.55 hrs post dose): <0% | Occupancy (ROIswa), PET Scan 2 (HSD-1 [2]; Subject L, 1 mg single dose, 47.95 hrs post dose): <0% | enzyme occupancy (HSD-1 [2]; single 2 and 1 mg doses): no enzyme occupancy was detected | HSD-1 occupancy (HSD-1 [2]; 19.2-25.43 hours post dose): ~86% | HSD-1 occupancy (HSD-1 [2]; 42.19-46.24 hours post dose): 60-80% | HSD-1 occupancy (HSD-1 [2]; 138.67-139.36 hours post dose): ~40% | HSD-1 occupancy (HSD-1 [2]; 3.25 hours post dose): ~90% | HSD-1 occupancy (HSD-1 [2]; 189.15 hours post dose): 26% | region of interest size weighted average (ROIswa) HSD-1 occupancy (HSD-1 [2]; single doses of 30 and 6 mg, scan times 2.62 to 46.75 hours post dose): > 96% | Hill coefficient, estimate (HSD-1 [3]): 1.53 | Maximum effect, Emax (% HSD-1 occupancy), estimate (HSD-1 [3]): 97.6% | EC50 (HSD-1 [3]; read-out: Plasma concentration when half Emax is achieved, EC50, estimate (converted)): 240 pM
SMILES: Cn1c(-c2ccc(C(N)=O)cc2F)nnc1C(C)(C)Oc1c(F)cc(Cl)cc1F [Compound A]
level of inhibition of urinary HSD-1 ratio on increasing the dose (HSD-1 [1]; healthy adult subjects, fasted, single dose above 6 mg): did not substantially increase the level of inhibition
